Experimental data as given in ChEMBL document CHEMBL1139788, “Potent, nonsteroidal selective androgen receptor modulators (SARMs) based on 8H-[1,4]oxazino[2,3-f]quinolin-8-ones” (Bioorg Med Chem Lett, 2007).
Activity calls are given as the source filed them. The calls are words filed in the database; no cut-off is given here.

What was measured:
Androgen receptor [1] = biological target: T1, Androgen receptor (Homo sapiens, UniProt P10275)
T1 sequence (P10275 whole entry): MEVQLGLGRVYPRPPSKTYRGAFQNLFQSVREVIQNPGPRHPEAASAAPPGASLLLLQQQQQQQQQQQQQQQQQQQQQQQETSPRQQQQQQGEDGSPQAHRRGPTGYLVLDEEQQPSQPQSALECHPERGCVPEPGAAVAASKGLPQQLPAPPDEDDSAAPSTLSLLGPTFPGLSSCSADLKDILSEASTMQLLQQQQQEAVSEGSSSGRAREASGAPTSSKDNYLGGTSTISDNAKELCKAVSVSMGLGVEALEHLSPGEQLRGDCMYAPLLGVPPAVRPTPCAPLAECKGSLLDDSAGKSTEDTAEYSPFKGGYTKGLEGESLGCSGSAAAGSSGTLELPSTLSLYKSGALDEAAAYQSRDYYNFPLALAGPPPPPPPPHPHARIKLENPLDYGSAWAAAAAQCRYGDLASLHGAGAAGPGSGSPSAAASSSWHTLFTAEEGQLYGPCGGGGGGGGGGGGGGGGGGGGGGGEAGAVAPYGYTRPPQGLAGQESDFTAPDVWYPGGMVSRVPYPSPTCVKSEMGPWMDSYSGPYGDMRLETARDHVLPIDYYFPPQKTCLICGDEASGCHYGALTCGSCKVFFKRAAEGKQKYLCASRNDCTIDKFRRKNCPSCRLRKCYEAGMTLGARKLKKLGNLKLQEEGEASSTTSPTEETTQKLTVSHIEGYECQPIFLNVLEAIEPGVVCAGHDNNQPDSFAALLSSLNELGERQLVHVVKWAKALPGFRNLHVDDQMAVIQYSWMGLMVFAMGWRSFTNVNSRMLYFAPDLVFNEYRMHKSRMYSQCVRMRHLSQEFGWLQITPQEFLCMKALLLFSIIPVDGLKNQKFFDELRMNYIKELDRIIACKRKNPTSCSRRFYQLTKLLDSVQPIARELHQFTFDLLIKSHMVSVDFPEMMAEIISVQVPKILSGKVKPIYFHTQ
Description: Antagonist activity at human androgen receptor expressed in CV1 cells by transcriptional activation assay

Androgen receptor [2] = biological target: T1, Androgen receptor; remark: listed apart in the source
Description: Agonist activity at human androgen receptor expressed in CV1 cells by transcriptional activation assay

[3] = biological target: T2, Mineralocorticoid receptor (Homo sapiens) (UniProt P08235); assay: Agonist activity at mineralocorticoid receptor by transactivation assay; format: functional
T2 sequence (whole entry): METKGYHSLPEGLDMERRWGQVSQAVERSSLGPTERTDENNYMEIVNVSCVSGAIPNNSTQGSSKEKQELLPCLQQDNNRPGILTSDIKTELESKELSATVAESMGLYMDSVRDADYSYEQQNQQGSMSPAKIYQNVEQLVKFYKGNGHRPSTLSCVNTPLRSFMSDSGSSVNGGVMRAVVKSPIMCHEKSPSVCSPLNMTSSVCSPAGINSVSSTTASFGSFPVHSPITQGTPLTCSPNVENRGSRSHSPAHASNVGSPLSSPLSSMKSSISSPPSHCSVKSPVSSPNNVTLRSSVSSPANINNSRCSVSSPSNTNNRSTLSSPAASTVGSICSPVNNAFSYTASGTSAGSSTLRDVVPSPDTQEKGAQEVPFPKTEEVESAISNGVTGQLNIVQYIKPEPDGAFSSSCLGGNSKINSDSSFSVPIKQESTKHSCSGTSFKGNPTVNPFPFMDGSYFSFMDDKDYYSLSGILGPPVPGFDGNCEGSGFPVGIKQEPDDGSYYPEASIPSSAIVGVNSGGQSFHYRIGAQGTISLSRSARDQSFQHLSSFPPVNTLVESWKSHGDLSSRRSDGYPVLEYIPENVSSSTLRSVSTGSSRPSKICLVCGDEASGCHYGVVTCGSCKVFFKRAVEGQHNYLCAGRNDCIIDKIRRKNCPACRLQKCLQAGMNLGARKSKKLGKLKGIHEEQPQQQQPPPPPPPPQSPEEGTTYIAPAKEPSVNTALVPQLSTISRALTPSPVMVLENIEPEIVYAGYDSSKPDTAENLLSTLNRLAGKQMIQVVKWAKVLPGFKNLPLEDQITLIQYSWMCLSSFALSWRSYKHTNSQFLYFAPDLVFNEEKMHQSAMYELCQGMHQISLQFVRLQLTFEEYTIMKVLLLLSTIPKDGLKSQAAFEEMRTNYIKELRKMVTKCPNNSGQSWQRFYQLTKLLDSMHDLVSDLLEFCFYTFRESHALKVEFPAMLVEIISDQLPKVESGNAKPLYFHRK

[4] = biological target: T3, Progesterone receptor (Homo sapiens) (UniProt P06401); assay: Antagonist activity at progesterone receptor by transactivation assay; format: functional
T3 sequence (whole entry): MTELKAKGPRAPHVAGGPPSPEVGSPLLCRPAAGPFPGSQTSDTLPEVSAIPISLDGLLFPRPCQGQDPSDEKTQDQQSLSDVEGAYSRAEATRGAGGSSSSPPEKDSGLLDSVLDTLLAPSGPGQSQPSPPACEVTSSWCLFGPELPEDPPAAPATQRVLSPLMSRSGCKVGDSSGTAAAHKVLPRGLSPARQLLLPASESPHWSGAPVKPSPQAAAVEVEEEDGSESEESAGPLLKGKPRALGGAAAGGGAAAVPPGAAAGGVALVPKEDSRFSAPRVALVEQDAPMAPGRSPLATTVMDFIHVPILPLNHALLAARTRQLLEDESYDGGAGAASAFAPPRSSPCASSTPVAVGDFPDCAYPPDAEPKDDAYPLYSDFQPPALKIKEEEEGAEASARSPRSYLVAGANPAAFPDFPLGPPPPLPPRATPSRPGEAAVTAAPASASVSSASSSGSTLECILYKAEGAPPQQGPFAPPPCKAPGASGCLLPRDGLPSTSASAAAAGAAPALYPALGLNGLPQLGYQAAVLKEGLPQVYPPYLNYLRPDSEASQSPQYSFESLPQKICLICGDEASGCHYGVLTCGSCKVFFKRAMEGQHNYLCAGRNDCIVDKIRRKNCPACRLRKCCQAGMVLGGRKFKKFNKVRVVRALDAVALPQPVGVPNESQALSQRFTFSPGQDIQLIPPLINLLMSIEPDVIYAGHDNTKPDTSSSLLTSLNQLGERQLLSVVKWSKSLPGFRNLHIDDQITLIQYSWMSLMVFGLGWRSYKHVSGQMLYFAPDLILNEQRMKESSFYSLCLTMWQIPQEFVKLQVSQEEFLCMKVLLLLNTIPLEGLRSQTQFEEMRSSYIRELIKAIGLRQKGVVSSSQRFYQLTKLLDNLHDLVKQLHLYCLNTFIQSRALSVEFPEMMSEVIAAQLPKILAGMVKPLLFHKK

[5] = biological target: T4, Glucocorticoid receptor (Homo sapiens) (UniProt P04150); assay: (§1) Antagonist activity at glucocorticoid receptor by transactivation assay; format: functional
T4 sequence (whole entry): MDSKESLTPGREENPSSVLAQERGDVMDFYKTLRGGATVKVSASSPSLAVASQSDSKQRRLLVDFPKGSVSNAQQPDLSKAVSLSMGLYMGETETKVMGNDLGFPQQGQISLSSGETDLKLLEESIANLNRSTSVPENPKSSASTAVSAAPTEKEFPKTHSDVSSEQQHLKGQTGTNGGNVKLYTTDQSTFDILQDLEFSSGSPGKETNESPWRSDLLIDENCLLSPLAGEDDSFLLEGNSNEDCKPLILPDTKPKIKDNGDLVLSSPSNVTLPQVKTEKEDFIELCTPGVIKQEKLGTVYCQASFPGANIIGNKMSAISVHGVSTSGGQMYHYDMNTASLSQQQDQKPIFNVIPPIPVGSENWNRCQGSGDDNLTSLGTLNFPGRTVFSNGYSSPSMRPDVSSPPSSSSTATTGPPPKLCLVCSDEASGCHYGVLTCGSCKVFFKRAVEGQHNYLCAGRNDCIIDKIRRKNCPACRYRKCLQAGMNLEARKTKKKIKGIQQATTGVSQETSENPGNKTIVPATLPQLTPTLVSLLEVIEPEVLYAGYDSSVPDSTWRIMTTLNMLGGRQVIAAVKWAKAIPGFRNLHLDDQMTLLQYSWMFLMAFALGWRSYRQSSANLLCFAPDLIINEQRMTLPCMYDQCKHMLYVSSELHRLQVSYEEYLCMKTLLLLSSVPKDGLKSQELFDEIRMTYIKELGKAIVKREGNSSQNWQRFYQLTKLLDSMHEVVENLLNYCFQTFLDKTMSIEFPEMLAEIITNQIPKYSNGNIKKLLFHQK

Glucocorticoid receptor = biological target: T5, Glucocorticoid receptor (Homo sapiens, UniProt P04150); assay: as §1; format: functional
T5 sequence (P04150 whole entry): T4 sequence (whole entry)

[6] = biological target: T4, Glucocorticoid receptor (Homo sapiens); assay: Agonist activity at glucocorticoid receptor by transactivation assay; format: functional
[7] = biological target: T2, Mineralocorticoid receptor (Homo sapiens); assay: Antagonist activity at mineralocorticoid receptor by transactivation assay; format: functional
[8] = biological target: T3, Progesterone receptor (Homo sapiens); assay: Agonist activity at progesterone receptor by transactivation assay; format: functional
Rattus norvegicus [9] = assay: Reduced activity on ventral prostate weight in 2-week castrated mature rat model at 100 mg/kg; format: functional, organism-based; design: dose 100 mg/kg; details: Prostate gland
Rattus norvegicus [10] = assay: Effect on levator ani muscle weight maintenance in 2-week castrated mature rat model at 10 mg/kg; format: functional, organism-based; design: dose 10 mg/kg

SMILES	IC50 (Androgen receptor [1])	EC50 (Androgen receptor [2])	also measured
CCN1c2ccc3[nH]c(=O)cc(C(F)(F)F)c3c2OC[C@H]1C(C)C	> 10 µM		
CC[C@@H]1COc2c(ccc3[nH]c(=O)cc(C(F)(F)F)c23)N1C		> 10 µM	
CC(C)C[C@@H]1COc2c(ccc3[nH]c(=O)cc(C(F)(F)F)c23)N1CC(F)(F)F		0.098 µM	
O=c1cc(C(F)(F)F)c2c3c(ccc2[nH]1)N(CC(F)(F)F)[C@H](Cc1ccccc1)CO3	> 10 µM	0.043 µM	
CC[C@@H]1COc2c(ccc3[nH]c(=O)cc(C(F)(F)F)c23)N1CC	> 10 µM		
C=CCN1c2ccc3[nH]c(=O)cc(C(F)(F)F)c3c2OC[C@H]1CC	> 10 µM	0.051 µM	
C[C@@H]1COc2c(ccc3[nH]c(=O)cc(C(F)(F)F)c23)N1C		> 10 µM	
CCC[C@@H]1COc2c(ccc3[nH]c(=O)cc(C(F)(F)F)c23)N1	0.113 µM	> 10 µM	
O=c1cc(C(F)(F)F)c2c3c(ccc2[nH]1)N(CC1CC1)[C@H](c1ccccc1)CO3	0.045 µM	> 10 µM	
CCN1c2ccc3[nH]c(=O)cc(C(F)(F)F)c3c2OC[C@H]1C		0.42 µM	
C[C@@H]1COc2c(ccc3[nH]c(=O)cc(C(F)(F)F)c23)N1CC(F)(F)F	> 10 µM	0.0054 µM	Activity [3]: inactive; Efficacy [4]: 40%; Efficacy [5]: 53%; IC50 (Glucocorticoid receptor): 3.2 µM; Activity [6]: inactive; Activity [7]: inactive; Activity [8]: inactive
O=c1cc(C(F)(F)F)c2c3c(ccc2[nH]1)N(CC1CC1)C(c1ccccc1)CO3 (stereo not given)	> 10 µM	0.0035 µM	
CC[C@@H]1COc2c(ccc3[nH]c(=O)cc(C(F)(F)F)c23)N1CC(C)C	> 10 µM	0.227 µM	
CC[C@@H]1COc2c(ccc3[nH]c(=O)cc(C(F)(F)F)c23)N1CC(F)(F)F	> 10 µM	0.001 µM	Activity (Rattus norvegicus [9]): Active; Activity (Rattus norvegicus [10]): Active; Activity [3]: inactive; Efficacy [4]: 94%; Efficacy [5]: 98%; Activity [6]: inactive; Activity [7]: inactive; Activity [8]: inactive
CC(C)[C@@H]1COc2c(ccc3[nH]c(=O)cc(C(F)(F)F)c23)N1CC(F)(F)F	> 10 µM	0.02 µM	
O=c1cc(C(F)(F)F)c2c3c(ccc2[nH]1)NCCO3	1.5 µM	> 10 µM	
O=c1cc(C(F)(F)F)c2c3c(ccc2[nH]1)N[C@H](c1ccccc1)CO3	1.48 µM	> 10 µM	
CC[C@@H]1COc2c(ccc3[nH]c(=O)cc(C(F)(F)F)c23)N1CC(C)(C)O	> 10 µM	0.3 µM	
O=c1cc(C(F)(F)F)c2c3c(ccc2[nH]1)N(CC1CC1)[C@@H](c1ccccc1)CO3	> 10 µM	0.018 µM	
CCCN1c2ccc3[nH]c(=O)cc(C(F)(F)F)c3c2OC[C@H]1C		0.406 µM	
CCCN1c2ccc3[nH]c(=O)cc(C(F)(F)F)c3c2OC[C@H]1CC	> 10 µM	0.394 µM	
C=CCN1c2ccc3[nH]c(=O)cc(C(F)(F)F)c3c2OC[C@H]1C(C)C	> 10 µM		
CC[C@@H]1COc2c(ccc3[nH]c(=O)cc(C(F)(F)F)c23)N1	0.084 µM	> 10 µM	Activity [3]: inactive; Efficacy [4]: 42%; Activity [6]: inactive; Activity [7]: inactive; Activity [8]: inactive
CC(C)[C@@H]1COc2c(ccc3[nH]c(=O)cc(C(F)(F)F)c23)N1C		0.276 µM	
O=c1cc(C(F)(F)F)c2c3c(ccc2[nH]1)N(CC(F)(F)F)CCO3		0.19 µM	
